The NIST ThermoML archive (doi:10.1016/j.tca.2013.06.022)
± gives the expanded uncertainty stated by the source.

Conditions: for Normal melting temperature: Crystal

Row | Structure (SMILES) | Normal melting temperature (visual observation) [°C] | Glass transition temperature (DTA) [°C] | Normal melting temperature (DTA) [°C]
1 | C=CC[n+]1cccc(C)c1.[Cl-] [1-allyl-3-methylpyridinium chloride] | 108.00 ± 5 | 27.50 ± 5 | 
2 | CCCCCCCCCC[n+]1cccc(C)c1.[Cl-] [1-decyl-3-methylpyridinium chloride] | 64.00 ± 5 |  | 55.00 ± 5
3 | CC[n+]1cccc(C)c1.[Br-] [1-ethyl-3-methylpyridinium bromide] | 163.00 ± 5 |  | 146.00 ± 5
4 | CC[n+]1cccc(C)c1.[Cl-] [1-ethyl-3-methylpyridinium chloride] | 130.00 ± 5 | 29.00 ± 5 | 
5 | CCC[n+]1cccc(C)c1.[Cl-] [1-propyl-3-methylpyridinium chloride] | 92.00 ± 5 | 18.50 ± 5 | 

Now from value to compound:

Row | Normal melting temperature (visual observation) [°C] | Glass transition temperature (DTA) [°C] | Normal melting temperature (DTA) [°C] | Structure (SMILES)
6 | 97.00 ± 5 | 35.00 ± 5 | 93.00 ± 5 | CCCC[n+]1cccc(C)c1.[Cl-] [1-butyl-3-methylpyridinium chloride]
7 | 72.00 ± 5 | 16.50 ± 5 |  | CCCCCCC[n+]1cccc(C)c1.[Cl-] [1-heptyl-3-methylpyridinium chloride]
8 | 77.00 ± 5 |  | 62.00 ± 5 | CCCCCC[n+]1cccc(C)c1.[Cl-] [1-hexyl-3-methylpyridinium chloride]
9 | 64.00 ± 5 |  |  | CCCCCCCCC[n+]1cccc(C)c1.[Cl-] [1-nonyl-3-methylpyridinium chloride]
10 | 74.00 ± 5 |  | 69.00 ± 5 | CCCCCCCC[n+]1cccc(C)c1.[Cl-] [1-octyl-3-methylpyridinium chloride]
11 | 92.00 ± 5 | 21.50 ± 5 |  | CCCCC[n+]1cccc(C)c1.[Cl-] [1-pentyl-3-methylpyridinium chloride]
